Active and inactive are the calls of the source. No cut-off for these calls is given here.
Assays:
[1] = biological target: T1, ALK tyrosine kinase receptor (Homo sapiens, UniProt Q9UM73)
Target sequence in this assay (Q9UM73 whole entry): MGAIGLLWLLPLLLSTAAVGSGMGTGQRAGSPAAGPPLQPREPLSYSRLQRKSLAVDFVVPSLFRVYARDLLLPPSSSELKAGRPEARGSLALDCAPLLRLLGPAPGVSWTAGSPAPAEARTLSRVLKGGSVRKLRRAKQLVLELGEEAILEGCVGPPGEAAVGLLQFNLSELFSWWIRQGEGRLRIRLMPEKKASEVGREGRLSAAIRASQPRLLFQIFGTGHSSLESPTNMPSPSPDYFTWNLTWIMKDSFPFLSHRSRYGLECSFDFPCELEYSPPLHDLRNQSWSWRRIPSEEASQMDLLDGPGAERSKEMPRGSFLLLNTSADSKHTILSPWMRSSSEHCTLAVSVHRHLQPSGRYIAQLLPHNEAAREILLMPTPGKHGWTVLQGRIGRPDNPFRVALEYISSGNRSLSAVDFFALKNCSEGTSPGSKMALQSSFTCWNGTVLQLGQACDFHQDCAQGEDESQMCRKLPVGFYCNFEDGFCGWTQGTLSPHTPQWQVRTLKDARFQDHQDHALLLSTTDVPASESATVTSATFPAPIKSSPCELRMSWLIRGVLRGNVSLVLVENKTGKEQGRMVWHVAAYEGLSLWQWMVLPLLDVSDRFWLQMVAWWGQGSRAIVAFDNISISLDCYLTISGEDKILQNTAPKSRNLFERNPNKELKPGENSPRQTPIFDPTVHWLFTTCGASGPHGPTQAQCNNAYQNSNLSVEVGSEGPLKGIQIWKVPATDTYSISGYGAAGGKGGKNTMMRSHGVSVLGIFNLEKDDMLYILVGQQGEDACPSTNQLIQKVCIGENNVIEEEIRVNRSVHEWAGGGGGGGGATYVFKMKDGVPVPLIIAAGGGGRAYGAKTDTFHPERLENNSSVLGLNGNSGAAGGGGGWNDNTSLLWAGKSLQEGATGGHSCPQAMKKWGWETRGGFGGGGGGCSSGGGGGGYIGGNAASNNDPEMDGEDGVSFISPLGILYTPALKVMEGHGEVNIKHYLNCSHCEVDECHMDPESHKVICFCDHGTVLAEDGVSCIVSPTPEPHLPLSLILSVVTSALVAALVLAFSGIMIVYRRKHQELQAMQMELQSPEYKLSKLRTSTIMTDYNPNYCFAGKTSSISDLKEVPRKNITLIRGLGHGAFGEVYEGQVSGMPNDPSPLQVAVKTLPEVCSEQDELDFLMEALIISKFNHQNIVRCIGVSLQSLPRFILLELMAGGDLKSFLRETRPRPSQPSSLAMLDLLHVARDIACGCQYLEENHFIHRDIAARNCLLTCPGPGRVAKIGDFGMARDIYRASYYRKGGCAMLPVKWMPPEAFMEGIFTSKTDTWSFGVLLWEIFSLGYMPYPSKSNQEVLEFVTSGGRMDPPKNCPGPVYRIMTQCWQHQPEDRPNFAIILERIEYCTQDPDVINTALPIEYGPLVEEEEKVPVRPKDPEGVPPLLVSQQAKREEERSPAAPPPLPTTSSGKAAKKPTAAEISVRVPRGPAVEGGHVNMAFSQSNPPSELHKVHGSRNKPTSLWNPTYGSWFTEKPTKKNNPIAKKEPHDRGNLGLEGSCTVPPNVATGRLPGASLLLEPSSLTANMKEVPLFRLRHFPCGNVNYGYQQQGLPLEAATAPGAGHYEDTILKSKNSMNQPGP

NCI-H3122 = assay: Antiproliferative activity against ALK-positive human NCI-H3122 cells assessed as inhibition of cell proliferation measured after 72 hrs by MTT assay; assay type: functional, cell-based; settings: NCI-H3122, 72 h
[2] = biological target: T2, Protein cereblon/ALK tyrosine kinase receptor/Echinoderm microtubule-associated protein-like 4 (Homo sapiens) (UniProt Q9UM73+Q9HC35+Q96SW2); assay: Protac activity at CRBN/EML4-ALK in human NCI-H3122 cells assessed as induction of EML4-ALK fusion protein degradation at 0.1 uM incubated for 16 hrs by Western blot analysis relative to control; assay type: cell-based
[3] = biological target: T3, Protein cereblon/ALK tyrosine kinase receptor/Nucleophosmin (Homo sapiens) (UniProt Q9UM73+P06748+Q96SW2); assay: Protac activity at CRBN/NPM-ALK in human KARPAS-299 cells assessed as induction of NPM-ALK fusion protein degradation at 1 uM incubated for 24 hrs by Western blot analysis relative to control; assay type: cell-based
[4] = biological target: T3, Protein cereblon/ALK tyrosine kinase receptor/Nucleophosmin (Homo sapiens); assay: Protac activity at CRBN/NPM-ALK in human KARPAS-299 cells assessed as induction of NPM-ALK fusion protein degradation at 0.1 uM incubated for 24 hrs by Western blot analysis relative to control; assay type: cell-based
[5] = biological target: Signal transducer and activator of transcription 3 (Homo sapiens) (UniProt P40763); assay: Inhibition of STAT3 phosphorylation in human KARPAS-299 cells as 100 nM measured after 24 hrs by Western blot analysis relative to control; assay type: cell-based
[6] = biological target: T2, Protein cereblon/ALK tyrosine kinase receptor/Echinoderm microtubule-associated protein-like 4 (Homo sapiens); assay: Protac activity at CRBN/EML4-ALK in human NCI-H3122 cells assessed as induction of EML4-ALK fusion protein degradation at 0.25 uM incubated for 16 hrs by Western blot analysis; assay type: cell-based
[7] = biological target: T3, Protein cereblon/ALK tyrosine kinase receptor/Nucleophosmin (Homo sapiens); assay: Protac activity at CRBN/NPM-ALK in human KARPAS-299 cells assessed as induction of NPM-ALK fusion protein degradation at 1 uM incubated for 24 hrs followed by compound washout and measured after 24 hrs by Western blot analysis; assay type: cell-based
[8] = Half life in Sprague-Dawley rat at 50 mg/kg, ip administered as single dose measured for 24 hrs by LC-MS/MS analysis; assay type: ADME, organism-based; settings: in vivo
[9] = Tmax in Sprague-Dawley rat at 1 mg/kg, iv administered as single dose measured for 24 hrs by LC-MS/MS analysis; assay type: ADME, organism-based; settings: in vivo
[10] = Tmax in Sprague-Dawley rat at 50 mg/kg, ip administered as single dose measured for 24 hrs by LC-MS/MS analysis; assay type: ADME, organism-based; settings: in vivo
[11] = Cmax in Sprague-Dawley rat at 1 mg/kg, iv administered as single dose measured for 24 hrs by LC-MS/MS analysis; assay type: ADME, organism-based; parameters: time 24 hrs, dose 1 mg/kg, route iv; settings: in vivo
[12] = AUC (0 to t) in Sprague-Dawley rat at 1 mg/kg, iv administered as single dose measured for 24 hrs by LC-MS/MS analysis; assay type: ADME, organism-based; parameters: time 24 hrs, dose 1 mg/kg, route iv; settings: in vivo
[13] = AUC (0 to t) in Sprague-Dawley rat at 50 mg/kg, ip administered as single dose measured for 24 hrs by LC-MS/MS analysis; assay type: ADME, organism-based; parameters: dose 50 mg/kg, time 24 hrs, route ip; settings: in vivo
[14] = Volume of distribution in Sprague-Dawley rat at 1 mg/kg, iv administered as single dose measured for 24 hrs by LC-MS/MS analysis; assay type: ADME, organism-based; settings: in vivo
[15] = Observed oral clearance in Sprague-Dawley rat at 50 mg/kg, ip administered as single dose measured for 24 hrs by LC-MS/MS analysis; assay type: ADME, organism-based; settings: in vivo
[16] = MRTlast in Sprague-Dawley rat at 50 mg/kg, ip administered as single dose measured for 24 hrs by LC-MS/MS analysis; assay type: ADME, organism-based; settings: in vivo
KARPAS-299 [17] = assay: Antitumor activity against human KARPAS-299 cells xenografted in NCG mouse assessed as reduction in tumor volume at 5 to 10 mg/kg, iv administered once every day for 3 weeks and measured every 3 days; assay type: functional, organism-based; settings: dose 5-10 mg/kg
KARPAS-299 [18] = assay: Antitumor activity against human KARPAS-299 cells xenografted in NCG mouse assessed as reduction in tumor volume at 25 to 50 mg/kg, ip administered once every day for 3 weeks and measured every 3 days; assay type: functional, organism-based; settings: dose 25-50 mg/kg
KARPAS-299 [19] = assay: Antitumor activity against human KARPAS-299 cells xenografted in NCG mouse assessed as reduction in tumor weight at 25 to 50 mg/kg, ip administered once every day for 3 weeks and measured every 3 days; assay type: functional, organism-based; settings: dose 25-50 mg/kg
KARPAS-299 [20] = assay: Antitumor activity against human KARPAS-299 cells xenografted in NCG mouse assessed as tumor growth inhibition at 10 mg/kg, iv administered once every day for 3 weeks and measured every 3 days relative to control; assay type: functional; settings: KARPAS-299, 504 h, read-out: TGI
[21] = Toxicity in NCG mouse xenografted with human KARPAS-299 cells assessed as body weight loss at 10 mg/kg, iv administered once every day for 3 weeks; assay type: organism-based; settings: in vivo, 504 h
[22] = Toxicity in NCG mouse xenografted with human KARPAS-299 cells assessed as heart damage at 10 mg/kg, iv administered once every day for 3 weeks by H & E staining based analysis; assay type: organism-based; settings: in vivo, 504 h
[23] = Toxicity in NCG mouse xenografted with human KARPAS-299 cells assessed as liver damage at 10 mg/kg, iv administered once every day for 3 weeks by H and E staining based analysis; assay type: organism-based; settings: in vivo, 504 h
[24] = Toxicity in NCG mouse xenografted with human KARPAS-299 cells assessed as spleen damage at 10 mg/kg, iv administered once every day for 3 weeks by H and E staining based analysis; assay type: organism-based; settings: in vivo, 504 h
[25] = Toxicity in NCG mouse xenografted with human KARPAS-299 cells assessed as lung damage at 10 mg/kg, iv administered once every day for 3 weeks by H and E staining based analysis; assay type: organism-based; settings: in vivo, 504 h
KARPAS-299 [26] = assay: Antitumor activity against human KARPAS-299 cells xenografted in NCG mouse assessed as increase in ALK protein degradation at 5 to 10 mg/kg, iv administered once every day for 3 weeks; assay type: functional, organism-based; settings: dose 5-10 mg/kg
KARPAS-299 [27] = assay: Antitumor activity against human KARPAS-299 cells xenografted in NCG mouse assessed as increase in ALK protein degradation at 25 to 50 mg/kg, ip administered once every day for 3 weeks; assay type: functional, organism-based; settings: dose 25-50 mg/kg
BaF3 [28] = assay: Antiproliferative activity against mouse BaF3 cells assessed as cell viability at 1 uM incubated for 72 hrs by Celltitre-Glo assay relative to control; assay type: functional; settings: read-out: Activity
BaF3 [29] = assay: Antiproliferative activity against crizotinib-resistant mouse BaF3 cells expressing EML-ALK L1152R mutant assessed as cell viability at 1 uM incubated for 72 hrs by Celltitre-Glo assay relative to control; assay type: functional; settings: read-out: Activity
KARPAS-299 [30] = assay: Downregulation of jun-B protein expression in human KARPAS-299 cells at 1 uM incubated for 24 hrs by iTRAQ proteomics analysis; assay type: functional, cell-based
KARPAS-299 [31] = assay: Downregulation of SOCS3 protein expression in human KARPAS-299 cells at 1 uM incubated for 24 hrs by iTRAQ proteomics analysis; assay type: functional, cell-based
[32] = biological target: T1, ALK tyrosine kinase receptor; assay: Inhibition of ALK phosphorylation in human KARPAS-299 cells at 0.01 to 1 uM measured after 24 hrs by Western blot analysis; assay type: cell-based; settings: dose 0.01-1 µM
Target sequence in this assay (Q9UM73 19-1620 limits assumed): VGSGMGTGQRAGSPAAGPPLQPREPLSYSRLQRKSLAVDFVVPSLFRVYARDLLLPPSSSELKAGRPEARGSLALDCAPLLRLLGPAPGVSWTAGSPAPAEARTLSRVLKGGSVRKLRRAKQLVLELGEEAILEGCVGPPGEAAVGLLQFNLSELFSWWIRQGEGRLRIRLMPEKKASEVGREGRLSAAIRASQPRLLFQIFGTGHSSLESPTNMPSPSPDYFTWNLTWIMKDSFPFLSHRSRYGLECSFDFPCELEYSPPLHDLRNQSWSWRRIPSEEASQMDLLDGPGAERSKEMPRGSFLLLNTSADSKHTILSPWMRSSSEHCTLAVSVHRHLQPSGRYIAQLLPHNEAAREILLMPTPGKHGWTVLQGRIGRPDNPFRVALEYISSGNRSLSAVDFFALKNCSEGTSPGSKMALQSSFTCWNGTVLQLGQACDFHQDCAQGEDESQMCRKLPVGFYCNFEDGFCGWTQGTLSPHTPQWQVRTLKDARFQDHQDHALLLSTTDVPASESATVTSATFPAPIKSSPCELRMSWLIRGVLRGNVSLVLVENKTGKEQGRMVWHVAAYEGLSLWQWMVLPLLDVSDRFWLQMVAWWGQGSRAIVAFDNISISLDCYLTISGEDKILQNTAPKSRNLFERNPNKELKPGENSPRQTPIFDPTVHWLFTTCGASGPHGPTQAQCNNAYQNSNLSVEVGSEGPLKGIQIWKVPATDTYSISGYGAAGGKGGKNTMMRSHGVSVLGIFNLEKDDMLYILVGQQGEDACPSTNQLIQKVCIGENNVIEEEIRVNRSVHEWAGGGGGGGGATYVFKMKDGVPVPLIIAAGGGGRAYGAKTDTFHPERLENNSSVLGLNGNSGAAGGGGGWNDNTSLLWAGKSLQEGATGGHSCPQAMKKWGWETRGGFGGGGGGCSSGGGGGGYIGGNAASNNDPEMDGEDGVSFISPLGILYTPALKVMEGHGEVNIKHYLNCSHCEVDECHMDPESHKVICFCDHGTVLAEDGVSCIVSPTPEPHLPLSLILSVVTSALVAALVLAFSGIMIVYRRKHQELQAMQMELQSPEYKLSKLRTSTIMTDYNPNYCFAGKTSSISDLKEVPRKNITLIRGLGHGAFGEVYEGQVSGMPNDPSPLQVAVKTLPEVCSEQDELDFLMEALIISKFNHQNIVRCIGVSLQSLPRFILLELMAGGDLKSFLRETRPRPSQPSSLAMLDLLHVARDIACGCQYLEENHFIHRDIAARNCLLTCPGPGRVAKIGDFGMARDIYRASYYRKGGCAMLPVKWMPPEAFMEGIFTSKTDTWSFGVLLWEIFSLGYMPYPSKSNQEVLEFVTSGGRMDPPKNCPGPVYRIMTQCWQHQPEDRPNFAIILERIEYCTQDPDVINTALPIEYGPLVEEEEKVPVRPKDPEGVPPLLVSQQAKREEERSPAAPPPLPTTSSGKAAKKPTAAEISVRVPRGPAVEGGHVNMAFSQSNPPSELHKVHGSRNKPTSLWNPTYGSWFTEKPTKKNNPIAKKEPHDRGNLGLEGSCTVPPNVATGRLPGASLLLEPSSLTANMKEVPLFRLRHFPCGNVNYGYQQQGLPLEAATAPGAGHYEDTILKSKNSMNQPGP

T3 sequence (P06748 whole entry partner, the tested form may be a part): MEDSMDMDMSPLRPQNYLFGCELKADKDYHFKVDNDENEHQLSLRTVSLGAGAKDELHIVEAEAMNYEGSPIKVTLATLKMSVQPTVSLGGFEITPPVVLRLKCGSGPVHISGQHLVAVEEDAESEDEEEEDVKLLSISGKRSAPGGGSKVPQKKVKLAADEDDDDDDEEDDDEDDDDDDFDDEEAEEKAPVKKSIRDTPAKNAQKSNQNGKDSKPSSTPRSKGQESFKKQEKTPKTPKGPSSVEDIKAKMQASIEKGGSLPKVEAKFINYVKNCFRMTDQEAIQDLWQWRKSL
T3 sequence (Q96SW2 whole entry partner, the tested form may be a part): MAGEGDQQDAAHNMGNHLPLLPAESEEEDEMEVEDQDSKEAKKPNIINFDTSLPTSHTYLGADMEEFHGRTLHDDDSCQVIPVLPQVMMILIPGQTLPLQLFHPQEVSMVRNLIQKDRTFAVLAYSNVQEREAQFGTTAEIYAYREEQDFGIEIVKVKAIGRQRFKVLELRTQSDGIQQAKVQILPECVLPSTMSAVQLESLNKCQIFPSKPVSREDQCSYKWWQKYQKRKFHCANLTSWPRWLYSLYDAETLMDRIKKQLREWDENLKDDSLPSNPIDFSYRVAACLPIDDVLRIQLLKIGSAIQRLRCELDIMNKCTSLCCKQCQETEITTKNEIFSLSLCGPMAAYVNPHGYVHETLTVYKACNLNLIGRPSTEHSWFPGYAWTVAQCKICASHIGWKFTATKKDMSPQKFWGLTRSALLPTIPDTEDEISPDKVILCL
T3 sequence (Q9UM73 19-1620 limits assumed): as the sequence (Q9UM73 19-1620 limits assumed) above
T2 sequence (Q96SW2 whole entry partner, the tested form may be a part): as the sequence (Q96SW2 whole entry partner, the tested form may be a part) above
T2 sequence (Q9HC35 whole entry partner, the tested form may be a part): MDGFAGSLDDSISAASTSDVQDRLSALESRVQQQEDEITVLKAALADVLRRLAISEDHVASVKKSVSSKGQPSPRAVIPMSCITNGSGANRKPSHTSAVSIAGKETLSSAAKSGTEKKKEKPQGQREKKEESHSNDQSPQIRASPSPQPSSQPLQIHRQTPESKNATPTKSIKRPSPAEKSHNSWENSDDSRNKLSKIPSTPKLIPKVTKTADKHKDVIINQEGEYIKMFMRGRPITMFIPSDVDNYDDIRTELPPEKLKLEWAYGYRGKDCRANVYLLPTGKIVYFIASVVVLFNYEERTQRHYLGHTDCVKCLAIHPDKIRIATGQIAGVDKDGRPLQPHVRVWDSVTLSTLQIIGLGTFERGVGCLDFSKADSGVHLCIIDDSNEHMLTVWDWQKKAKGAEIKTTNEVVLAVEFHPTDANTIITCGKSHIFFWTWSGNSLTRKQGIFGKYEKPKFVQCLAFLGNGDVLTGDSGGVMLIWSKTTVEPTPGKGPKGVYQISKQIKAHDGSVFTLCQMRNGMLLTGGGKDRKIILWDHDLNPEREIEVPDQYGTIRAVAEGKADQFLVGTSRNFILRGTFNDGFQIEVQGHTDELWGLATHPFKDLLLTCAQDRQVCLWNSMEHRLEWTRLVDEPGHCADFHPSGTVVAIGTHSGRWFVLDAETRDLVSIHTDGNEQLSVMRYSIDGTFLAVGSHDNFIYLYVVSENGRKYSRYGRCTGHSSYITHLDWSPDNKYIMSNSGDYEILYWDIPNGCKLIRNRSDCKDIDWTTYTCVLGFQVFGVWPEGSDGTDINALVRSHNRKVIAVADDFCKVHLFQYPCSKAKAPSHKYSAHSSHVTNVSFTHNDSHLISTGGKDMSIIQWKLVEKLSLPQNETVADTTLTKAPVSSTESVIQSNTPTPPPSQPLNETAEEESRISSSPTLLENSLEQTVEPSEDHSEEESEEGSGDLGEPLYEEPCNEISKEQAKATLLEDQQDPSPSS
T2 sequence (Q9UM73 19-1620 limits assumed): as the sequence (Q9UM73 19-1620 limits assumed) above

CCc1cc2c(cc1N1CCN(C(=O)CNc3cccc4c3C(=O)N(C3CCC(=O)NC3=O)C4=O)CC1)C(C)(C)c1[nH]c3cc(C#N)ccc3c1C2=O (stereo not drawn)
IC50 [1]: 13.6 µM
IC50 (NCI-H3122): 62 nM
Activity [2]: 50.3%
Activity [3]: 85%
Activity [4]: 8.6%
inhibition [5]: > 85%
Activity [6]: Active
Activity [7]: Active
half-life [8]: 1830 min
Tmax [9]: 1.8 min
Tmax [10]: 15 min
Cmax [11]: 994 ng/mL
AUC(0-t) at 24 h [12]: 146 ng·h/mL
AUC(0-t) at 24 h [13]: 546 ng·h/mL
Vd [14]: 3.89 L/kg
CL/F [15]: 743 mL/min/kg
MRT last at 24 h [16]: 9.93 h
Activity (KARPAS-299 [17]): Active
Activity (KARPAS-299 [18]): Active
Activity (KARPAS-299 [19]): Active
inhibition in vivo at 10 mg/kg (KARPAS-299 [20]): 75.8%
Activity [21]: Non-Toxic
Activity [22]: Non-Toxic
Activity [23]: Non-Toxic
Activity [24]: Non-Toxic
Activity [25]: Non-Toxic
Activity (KARPAS-299 [26]): Active
Activity (KARPAS-299 [27]): Active
viability at 1 µM (BaF3 [28]): 116%
viability at 1 µM (BaF3 [29]): 0.1%
Activity (KARPAS-299 [30]): Active
Activity (KARPAS-299 [31]): Active
inhibition [32]: Active
